Experimental data as given in ChEMBL document CHEMBL5331106, “Investigation into the Mechanism of Action of the Tuberculosis Drug Candidate SQ109 and Its Metabolites and Analogues in Mycobacteria” (J Med Chem, 2023).

Tests used:
[1] = test system: Mycolicibacterium smegmatis; test: Antimycobacterial activity against Mycobacterium smegmatis assessed as inhibition of mycobacterial growth incubated for 48 hrs; type: functional, organism-based
[2] = test system: Mycobacterium tuberculosis; test: Antimycobacterial activity against Mycobacterium tuberculosis HN878 assessed as inhibition of mycobacterial growth incubated for 5 days; type: functional, organism-based; conditions: HN878, 120 h
[3] = test system: Mycolicibacterium smegmatis; test: Antimycobacterial activity against Mycobacterium smegmatis assessed as inhibition of mycobacterial growth incubated for 48 hrs in presence of 50 uM undecaprenyl phosphate; type: functional, organism-based
[4] = test system: Mycolicibacterium smegmatis; test: Rescue fold, ratio of IC50 for antimycobacterial activity against Mycobacterium smegmatis in presence of 50 uM undecaprenyl phosphate to IC50 for antimycobacterial activity against Mycobacterium smegmatis; type: functional
[5] = test system: Mycobacterium tuberculosis; test: Antimycobacterial activity against Mycobacterium tuberculosis HN878 assessed as inhibition of mycobacterial growth incubated for 5 days in presence of 50 uM undecaprenyl phosphate; type: functional, organism-based; conditions: HN878, 120 h
[6] = test system: Mycolicibacterium smegmatis; test: Antimycobacterial activity against Mycobacterium smegmatis assessed as inhibition of mycobacterial growth incubated for 48 hrs in presence of 50 uM menaquinone-4; type: functional, organism-based
[7] = test system: Mycolicibacterium smegmatis; test: Antimycobacterial activity against Mycobacterium smegmatis assessed as inhibition of mycobacterial growth incubated for 48 hrs in presence of 50 uM menaquinone-4 and 50 uM undecaprenyl phosphate; type: functional, organism-based
[8] = test system: Mycolicibacterium smegmatis; test: Antimycobacterial activity against Mycobacterium smegmatis assessed as inhibition of mycobacterial growth incubated for 48 hrs in presence of 200 uM undecaprenyl phosphate; type: functional, organism-based
[9] = test system: Mycolicibacterium smegmatis; test: Antimycobacterial activity against Mycobacterium smegmatis assessed as inhibition of mycobacterial growth incubated for 48 hrs in presence of 100 uM undecaprenyl phosphate; type: functional, organism-based
[10] = test system: Mycolicibacterium smegmatis; test: Antimycobacterial activity against Mycobacterium smegmatis assessed as inhibition of mycobacterial growth incubated for 48 hrs in presence of 25 uM undecaprenyl phosphate; type: functional, organism-based
[11] = test system: Mycolicibacterium smegmatis; test: Antimycobacterial activity against Mycobacterium smegmatis assessed as inhibition of mycobacterial growth incubated for 48 hrs in presence of 12.5 uM undecaprenyl phosphate; type: functional, organism-based
[12] = test system: Mycolicibacterium smegmatis; test: Antimycobacterial activity against Mycobacterium smegmatis assessed as inhibition of mycobacterial growth incubated for 48 hrs in presence of 25 uM menaquinone-4; type: functional, organism-based
[13] = test system: Mycolicibacterium smegmatis; test: Antimycobacterial activity against Mycobacterium smegmatis assessed as inhibition of mycobacterial growth incubated for 48 hrs in presence of 200 uM menaquinone-4; type: functional, organism-based
[14] = test system: Mycolicibacterium smegmatis; test: Antimycobacterial activity against Mycobacterium smegmatis assessed as inhibition of mycobacterial growth incubated for 48 hrs in presence of 50 uM menaquinone-7; type: functional, organism-based
[15] = test system: Mycolicibacterium smegmatis; test: Antimycobacterial activity against Mycobacterium smegmatis assessed as inhibition of mycobacterial growth incubated for 48 hrs in presence of 100 uM menaquinone-7; type: functional, organism-based
Cell membrane = test: Uncoupling activity in Escherichia coli inverted membrane vesicles assessed as collapse of pH gradient by measuring increase in ACMA fluorescence intensity by fluorometric analysis; type: subcellular
[16] = target: T1, (2Z,6E)-farnesyl diphosphate synthase (Mycobacterium tuberculosis, UniProt P9WFF5); test: Inhibition of Mycobacterium tuberculosis cis-farnesyl diphosphate synthase
T1 sequence (P9WFF5 whole entry): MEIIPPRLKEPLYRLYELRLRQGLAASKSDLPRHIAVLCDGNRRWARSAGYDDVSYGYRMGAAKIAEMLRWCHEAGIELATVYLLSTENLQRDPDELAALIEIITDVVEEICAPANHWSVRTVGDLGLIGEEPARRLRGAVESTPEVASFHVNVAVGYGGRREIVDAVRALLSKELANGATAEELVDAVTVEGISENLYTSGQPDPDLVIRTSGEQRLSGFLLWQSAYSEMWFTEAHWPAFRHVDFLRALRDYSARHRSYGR

[17] = target: T2, Decaprenyl diphosphate synthase (Mycobacterium tuberculosis, UniProt P9WFF7); test: Inhibition of Mycobacterium tuberculosis cis-decaprenyl diphosphate synthase
T2 sequence (P9WFF7 whole entry): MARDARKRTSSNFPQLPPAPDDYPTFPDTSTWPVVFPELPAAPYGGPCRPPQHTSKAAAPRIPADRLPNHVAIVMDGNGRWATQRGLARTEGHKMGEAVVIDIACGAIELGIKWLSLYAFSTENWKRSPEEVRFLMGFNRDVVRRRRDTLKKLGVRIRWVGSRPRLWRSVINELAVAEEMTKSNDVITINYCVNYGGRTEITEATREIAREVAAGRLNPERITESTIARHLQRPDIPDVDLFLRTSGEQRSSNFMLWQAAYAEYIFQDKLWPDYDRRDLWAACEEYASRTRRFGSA

[18] = Inhibition of Plasmodium vivax geranylgeranyl diphosphate synthase
[19] = Inhibition of Staphylococcus aureus undecaprenyl diphosphate synthase
[20] = Inhibition of Escherichia coli undecaprenyl diphosphate synthase
[21] = Inhibition of Staphylococcus aureus farnesyl diphosphate synthase
[22] = Inhibition of Staphylococcus aureus dehydrosqualene synthase
[23] = test system: Mycolicibacterium smegmatis; test: Rescue fold, ratio of IC50 for antimycobacterial activity against Mycobacterium smegmatis in presence of 200 uM menaquinone-4 to IC50 for antimycobacterial activity against Mycobacterium smegmatis; type: functional
[24] = target: T3, Trehalose monomycolate exporter MmpL3 (Mycolicibacterium smegmatis, UniProt A0QP27); test: Binding affinity to C-terminal 10XHis-tagged Mycobacterium smegmatis mc2 155 MmpL3 expressed in Mycobacterium smegmatis mc2 155 cells by microscale thermophoresis analysis
T3 sequence (A0QP27 whole entry): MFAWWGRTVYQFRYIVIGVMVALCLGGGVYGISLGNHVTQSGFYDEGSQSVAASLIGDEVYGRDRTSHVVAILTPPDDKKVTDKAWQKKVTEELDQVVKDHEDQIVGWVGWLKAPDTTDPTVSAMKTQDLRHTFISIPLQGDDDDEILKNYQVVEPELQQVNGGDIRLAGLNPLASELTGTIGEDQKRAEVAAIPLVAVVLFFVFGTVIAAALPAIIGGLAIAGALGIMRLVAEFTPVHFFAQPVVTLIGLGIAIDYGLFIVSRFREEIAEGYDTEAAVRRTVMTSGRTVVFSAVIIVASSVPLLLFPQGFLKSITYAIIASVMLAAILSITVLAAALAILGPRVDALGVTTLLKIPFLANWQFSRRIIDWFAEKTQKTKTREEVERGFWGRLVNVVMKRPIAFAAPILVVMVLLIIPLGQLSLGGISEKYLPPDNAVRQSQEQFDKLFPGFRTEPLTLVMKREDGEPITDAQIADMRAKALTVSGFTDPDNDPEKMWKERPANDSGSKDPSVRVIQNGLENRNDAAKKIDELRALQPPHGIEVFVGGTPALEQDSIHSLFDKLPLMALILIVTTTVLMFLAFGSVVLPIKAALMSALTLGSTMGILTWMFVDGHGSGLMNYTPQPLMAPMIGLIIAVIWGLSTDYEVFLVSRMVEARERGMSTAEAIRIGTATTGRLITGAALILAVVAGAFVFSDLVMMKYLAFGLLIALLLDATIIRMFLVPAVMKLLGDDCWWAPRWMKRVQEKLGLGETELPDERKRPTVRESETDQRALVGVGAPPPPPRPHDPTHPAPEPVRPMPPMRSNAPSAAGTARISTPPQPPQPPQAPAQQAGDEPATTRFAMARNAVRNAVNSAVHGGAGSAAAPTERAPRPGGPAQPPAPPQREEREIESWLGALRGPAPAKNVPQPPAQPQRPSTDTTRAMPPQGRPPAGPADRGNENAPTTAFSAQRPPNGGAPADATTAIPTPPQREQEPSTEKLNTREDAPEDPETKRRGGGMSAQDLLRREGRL

[25] = target: T3, Trehalose monomycolate exporter MmpL3; test: Binding affinity to Mycobacterium smegmatis MmpL3 by surface plasmon resonance assay
[26] = test system: Mycolicibacterium smegmatis; test: Rescue fold, ratio of IC50 for antimycobacterial activity against Mycobacterium smegmatis in presence of 100 uM menaquinone-7 to IC50 for antimycobacterial activity against Mycobacterium smegmatis; type: functional
[27] = target: T4, Undecaprenyl-diphosphatase (Escherichia coli (strain K12), UniProt P60932); test: Inhibition of UppP in Escherichia coli using FPP as substrate pretreated for 20 mins followed by FPP addition and measured after 60 mins by malachite green based assay
T4 sequence (P60932 whole entry): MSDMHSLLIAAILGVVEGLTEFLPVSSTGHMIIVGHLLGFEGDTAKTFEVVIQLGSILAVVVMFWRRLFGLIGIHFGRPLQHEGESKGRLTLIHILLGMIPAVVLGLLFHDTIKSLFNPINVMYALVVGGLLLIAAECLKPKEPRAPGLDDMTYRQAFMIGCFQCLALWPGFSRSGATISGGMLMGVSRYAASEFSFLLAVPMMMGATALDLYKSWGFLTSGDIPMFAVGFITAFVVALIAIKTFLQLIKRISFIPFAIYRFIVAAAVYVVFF

[28] = test system: Mycolicibacterium smegmatis; test: Antimycobacterial activity against Mycobacterium smegmatis assessed as inhibition of mycobacterial growth incubated for 48 hrs in presence of 50 uM Upp; type: functional, organism-based
[29] = Drug metabolism in Mycobacterium tuberculosis HN878 assessed as N1-(adamantan-1-yl)ethane-1,2-diamine metabolite formation at 10 uM incubated for 24 hrs by LC-MS analysis; type: ADME

CC(C)=CCC/C(C)=C/CNCCNC1C2CC3CC(C2)CC1C3 (stereo not given) [SQ109]
IC50 [1]: 1.5 µM | IC50 [2]: 0.41 µM | IC50 [3]: 16 µM | Ratio IC50 [4]: 6.4 | IC50 [5]: 6.1 µM | IC50 [6]: 2.9 µM | IC50 [7]: 16 µM | IC50 [8]: 14 µM | IC50 [9]: 14 µM | IC50 [10]: 8.9 µM | IC50 [11]: 3.7 µM | IC50 [12]: 2.1 µM | IC50 [13]: 4.8 µM | IC50 [14]: 4.2 µM | IC50 [15]: 6.5 µM | IC50 (Cell membrane): 2.3 µM | IC50 [16]: ≥ 50 µM | IC50 [17]: ≥ 50 µM | IC50 [18]: ≥ 50 µM | IC50 [19]: ≥ 50 µM | IC50 [20]: ≥ 50 µM | IC50 [21]: ≥ 50 µM | IC50 [22]: ≥ 50 µM | Ratio IC50 [23]: 2 | Kd [24]: 1.6 µM | Kd [25]: 400 µM | Ratio IC50 [26]: 3 | IC50 [27]: 32 µM | IC50 [28]: 1.4 µM | Drug metabolism [29]: Metabolite_Notdetected
